Source: US10184137B2, “Method of producing isoprene monomer” (AJINOMOTO CO., INC., priority 2014, dated 2019)
Where a name gives a salt, the structure may show the parent alone.

Experiments:
[1] = biological target: T1, Nitrosopumilus maritimus mevalonate kinase (nmr), wild type, SEQ ID NO:9, N-terminal His-tag (Nitrosopumilus maritimus, UniProt A9A427); experiment: Examination of product inhibition on nmr-derived mevalonate kinase; type: biochemical; conditions: reaction on 1 mM mevalonate
[2] = biological target: T2, Saccharomyces cerevisiae mevalonate kinase (sce, ERG12), wild type, NP_013935.1, N-terminal His-tag (Saccharomyces cerevisiae, UniProt P07277); experiment: Inhibition of sce-derived mevalonate kinase by DMAPP, GPP, FPP or DPM; type: biochemical; conditions: control 0.1028
T2 construct: His-tag (N); made in house; host or cells: E. coli BL21(DE3)
T2 sequence (P07277 1-443): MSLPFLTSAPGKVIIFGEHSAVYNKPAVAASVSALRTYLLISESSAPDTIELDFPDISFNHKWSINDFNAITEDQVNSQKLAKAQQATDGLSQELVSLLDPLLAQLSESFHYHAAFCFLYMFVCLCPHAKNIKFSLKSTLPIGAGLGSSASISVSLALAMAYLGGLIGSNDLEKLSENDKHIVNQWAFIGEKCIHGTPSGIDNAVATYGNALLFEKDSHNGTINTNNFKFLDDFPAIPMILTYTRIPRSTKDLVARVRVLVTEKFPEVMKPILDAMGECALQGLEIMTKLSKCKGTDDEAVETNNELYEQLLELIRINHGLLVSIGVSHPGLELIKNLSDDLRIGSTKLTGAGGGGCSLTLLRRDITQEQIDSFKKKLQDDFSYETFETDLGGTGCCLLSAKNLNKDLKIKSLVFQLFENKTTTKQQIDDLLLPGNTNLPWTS
Method: (§1) Km value was calculated by Lineweaver-Burk plot.
(§2) Since GPP and FPP solutions contain methanol, methanol which was needed to keep the same methanol level at the addition to the reaction system was added to the reaction solution, which was designated as control.
(§3) Effect of 1 mM diphosphomevalonate (DPM) on each enzyme was also studied.

[3] = biological target: T3, Methanosarcina mazei mevalonate kinase (mma), wild type, SEQ ID NO:12, N-terminal His-tag (Methanosarcina mazei, UniProt Q8PW39); experiment: Inhibition of mma-derived mevalonate kinase by DMAPP, GPP, FPP or DPM; type: biochemical
T3 sequence (Q8PW39 1-301): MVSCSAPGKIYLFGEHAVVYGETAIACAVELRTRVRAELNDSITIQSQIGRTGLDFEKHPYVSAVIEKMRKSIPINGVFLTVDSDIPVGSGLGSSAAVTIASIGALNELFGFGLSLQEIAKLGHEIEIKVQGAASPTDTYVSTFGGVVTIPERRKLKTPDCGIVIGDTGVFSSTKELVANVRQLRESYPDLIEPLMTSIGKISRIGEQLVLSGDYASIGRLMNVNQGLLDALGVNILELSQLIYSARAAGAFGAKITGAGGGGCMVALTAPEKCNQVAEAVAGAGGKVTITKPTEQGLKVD
Method: as §1, §2, §3

[4] = biological target: T1, Nitrosopumilus maritimus mevalonate kinase (nmr), wild type, SEQ ID NO:9, N-terminal His-tag; experiment: Inhibition of nmr-derived mevalonate kinase by DMAPP, GPP, FPP or DPM; type: biochemical; conditions: 1 mM DPM, control 0.2064
Method: as §1, §2, §3

[5] = biological target: T4, Methanocella paludicola mevalonate kinase (mpd), wild type, SEQ ID NO:1, N-terminal His-tag (Methanocella paludicola, UniProt D1YZ39); experiment: Inhibition of mpd-derived mevalonate kinase by DMAPP, GPP, FPP or DPM; type: biochemical; conditions: 1 mM DPM, control 0.148
Method: as §1, §2, §3

[6] = biological target: Corynebacterium variabile mevalonate kinase (cva), wild type, SEQ ID NO:3, N-terminal His-tag (Corynebacterium variabile, UniProt A0A0X2NLH5); experiment: Inhibition of cva-derived mevalonate kinase by DMAPP, GPP, FPP or DPM; type: biochemical; conditions: 1 mM DPM, control 0.073275
Method: as §1, §2, §3

[7] = biological target: T5, Methanosaeta concilii mevalonate kinase (mcl), wild type, SEQ ID NO:6, N-terminal His-tag (Methanothrix soehngenii, UniProt F4BZB3); experiment: Inhibition of mcl-derived mevalonate kinase by DMAPP, GPP, FPP or DPM; type: biochemical; conditions: mcl; 1 mM DPM; control 0.1373
T5 sequence (F4BZB3 1-317): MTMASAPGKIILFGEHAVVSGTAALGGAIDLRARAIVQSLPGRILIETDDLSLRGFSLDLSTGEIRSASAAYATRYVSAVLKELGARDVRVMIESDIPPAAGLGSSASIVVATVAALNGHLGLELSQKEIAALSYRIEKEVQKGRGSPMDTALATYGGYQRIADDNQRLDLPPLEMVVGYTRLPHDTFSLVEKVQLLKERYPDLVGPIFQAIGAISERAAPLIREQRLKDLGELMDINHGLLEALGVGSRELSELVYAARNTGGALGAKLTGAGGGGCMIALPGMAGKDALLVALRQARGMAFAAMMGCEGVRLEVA
Method: as §1, §2, §3

[8] = biological target: T4, Methanocella paludicola mevalonate kinase (mpd), wild type, SEQ ID NO:1, N-terminal His-tag; experiment: Km and kcat of mevalonate kinase (mpd-derived); conditions: compared with the other enzymes
Method: (§4) Each obtained plasmid was used for transformation of E. coli BL21(DE3). […] When OD600 reached approximately 0.5, 0.1 mM IPTG (for cva, mma, nmr, and sce) or 1 mM (for mcl and mpd) of IPTG was added, and then the mixture was kept at 20° C. overnight to induce the target protein. […] After centrifugation (28,000×g, 30 min), the supernatant was adsorbed onto His-Trap HP (GE Healthcare) to elute the target protein by linear concentration gradient of Imidazol (final concentration 0.5 M). Obtained protein was dialyzed by using an external solution composed of 20 mM Tris-HCl (pH 8.0) containing 1 mM DTT and 50 mM NaCl. Dialyzed protein was designated as purified enzyme. Protein quantity was measured with Bio-RAD protein assay kit and BSA standard condition.
(§5) Decrease in absorbance at 340 nm at 30° C. was measured to determine the enzyme activity. JASCO Corporation's spectrophotometer (V-650) was used in this study. […] Km value was calculated by Lineweaver-Burk plot.

[9] = biological target: T5, Methanosaeta concilii mevalonate kinase (mcl), wild type, SEQ ID NO:6, N-terminal His-tag; experiment: Km and kcat of mevalonate kinase (mcl-derived); conditions: compared with the other enzymes
Method: as §4, §5

T4 sequence (D1YZ39 entry or part of it): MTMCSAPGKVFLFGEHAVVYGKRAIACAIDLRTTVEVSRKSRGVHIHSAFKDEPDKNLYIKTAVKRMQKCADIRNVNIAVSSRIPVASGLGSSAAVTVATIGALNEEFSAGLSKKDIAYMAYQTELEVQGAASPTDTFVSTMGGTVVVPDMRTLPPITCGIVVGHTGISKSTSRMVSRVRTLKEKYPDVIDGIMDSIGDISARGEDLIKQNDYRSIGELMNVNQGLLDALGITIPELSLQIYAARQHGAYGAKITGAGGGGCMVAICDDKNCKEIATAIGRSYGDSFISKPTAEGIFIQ
T1 sequence (A9A427 1-313): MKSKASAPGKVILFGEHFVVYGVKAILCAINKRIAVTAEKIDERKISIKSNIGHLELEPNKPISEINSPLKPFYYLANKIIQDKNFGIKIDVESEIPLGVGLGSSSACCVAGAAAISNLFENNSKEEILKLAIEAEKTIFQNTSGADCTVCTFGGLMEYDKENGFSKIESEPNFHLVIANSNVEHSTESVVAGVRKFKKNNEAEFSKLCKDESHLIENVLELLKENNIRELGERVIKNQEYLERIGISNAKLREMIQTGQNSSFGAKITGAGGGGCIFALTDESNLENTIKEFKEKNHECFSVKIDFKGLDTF
Sequence of Corynebacterium variabile mevalonate kinase (cva), wild type, SEQ ID NO:3, N-terminal His-tag (A0A0X2NLH5 entry or part of it): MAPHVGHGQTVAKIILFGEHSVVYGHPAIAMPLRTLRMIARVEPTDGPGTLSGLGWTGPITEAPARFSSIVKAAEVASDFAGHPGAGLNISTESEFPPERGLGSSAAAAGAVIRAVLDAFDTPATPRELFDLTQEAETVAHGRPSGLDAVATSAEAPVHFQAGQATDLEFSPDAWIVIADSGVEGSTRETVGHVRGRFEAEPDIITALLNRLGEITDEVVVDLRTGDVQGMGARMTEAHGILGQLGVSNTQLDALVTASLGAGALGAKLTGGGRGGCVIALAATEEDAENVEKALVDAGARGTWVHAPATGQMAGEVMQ

DPM-induced inhibition [1]	Enzyme activity with 1 mM DPM [2]	Enzyme activity with 1 mM DPM ([3]; 1 mM DPM, control 0.1604)	Inhibition by DPM ([3]; 1 mM diphosphomevalonate)	Enzyme activity with 1 mM DPM [4]	Enzyme activity with 1 mM DPM [5]	Enzyme activity with 1 mM DPM [6]	Enzyme activity with 1 mM DPM [7]	SMILES	Affinity [8]	Affinity [9]
inhibition is not observed	0.0984 dABS/min	0.1368 dABS/min	Slight inhibitory activity	0.2 dABS/min	0.156 dABS/min	0.07555 dABS/min	0.1353 dABS/min	CC(O)(CCOP(=O)(O)OP(=O)(O)O)CC(=O)O (racemic) [DPM, (±)-mevalonic acid 5-diphosphate tetralithium salt]		
								Nc1ncnc2c1ncn2[C@@H]1O[C@H](COP(=O)(O)OP(=O)(O)OP(=O)(O)O)[C@@H](O)[C@H]1O [ATP]	higher affinity	higher affinity
